Where a SMILES comes first, the peptide text is derived from it.

The target of the experiment is purified HLA-DRB1*0101 (Homo sapiens, UniProt P01903+P01911, A100R/D57E/F55L/F60I/F76Y/I96L/L162R/M171V/P40L/Q125E/R42F/V115G/Y59C). Put plainly: biochemical. Type of experiment: binding.
In turn, `CC[C@H](C)[C@H](NC(=O)[C@H](Cc1c[nH]c2ccccc12)NC(=O)[C@H](CC(=O)O)NC(=O)[C@H](Cc1ccccc1)NC(=O)[C@H](CCC(=O)O)NC(=O)[C@@H]1CCCN1C(=O)[C@H](CO)NC(=O)CNC(=O)[C@@H](N)CCCCN)C(=O)N[C@@H](CC(C)C)C(=O)NCC(=O)N[C@@H](Cc1c[nH]c2ccccc12)C(=O)N[C@H](C(=O)N[C@H](C(=O)N[C@@H](CCCCN)C(=O)O)[C@@H](C)CC)[C@@H](C)O` [GTOV GPC131-145] (H-KGSPEFDWILGWTIK-OH) yielded a half-inhibitory concentration (IC50) of 1700 pM. Consider `CC[C@H](C)[C@H](NC(=O)[C@H](CC(C)C)NC(=O)[C@H](CCCNC(=N)N)NC(=O)[C@H](Cc1c[nH]cn1)NC(=O)[C@H](Cc1ccc(O)cc1)NC(=O)[C@H](CCC(=O)O)NC(=O)[C@H](CCC(N)=O)NC(=O)[C@@H](N)CC(=O)O)C(=O)N[C@@H](Cc1c[nH]cn1)C(=O)N[C@@H](CO)C(=O)N[C@@H](CC(C)C)C(=O)N[C@@H](CO)C(=O)N[C@@H](CCCCN)C(=O)N[C@H](C(=O)N[C@@H](CO)C(=O)O)[C@@H](C)O` [GTOV L181-195] (H-DQEYHRLIHSLSKTS-OH), for which it took 340 pM to reach half-maximal inhibition (IC50). With `CC[C@H](C)[C@H](NC(=O)[C@H](CC(=O)O)NC(=O)[C@H](CC(C)C)NC(=O)[C@@H](NC(=O)[C@@H](N)CCCNC(=N)N)C(C)C)C(=O)N[C@@H](CC(C)C)C(=O)N[C@H](C(=O)N[C@@H](C)C(=O)N[C@@H](CCCNC(=N)N)C(=O)N[C@@H](CCCNC(=N)N)C(=O)N[C@@H](CC(C)C)C(=O)N[C@@H](CC(C)C)C(=O)N[C@@H](CC(C)C)C(=O)N[C@@H](CCCCN)C(=O)N[C@@H](CCCCN)C(=O)O)C(C)C` [GTOV L391-405] (H-RVLDILVARRLLLKK-OH) the figure was 190 pM. The same measure for `CC[C@H](C)[C@H](N)C(=O)N[C@@H](CCC(N)=O)C(=O)N[C@@H](CC(C)C)C(=O)N[C@H](C(=O)N[C@@H](Cc1ccccc1)C(=O)N[C@@H](CO)C(=O)N[C@@H](CO)C(=O)N[C@@H](CCSC)C(=O)N[C@H](C(=O)N[C@@H](CC(N)=O)C(=O)N1CCC[C@H]1C(=O)N[C@@H](CC(C)C)C(=O)N[C@H](C(=O)N[C@H](C(=O)N[C@H](C(=O)O)[C@@H](C)O)[C@@H](C)CC)C(C)C)[C@@H](C)CC)C(C)C` [GTOV L1826-1840] (H-IQLVFSSMINPLVIT-OH): 230 pM; for `CC[C@H](C)[C@H](NC(=O)[C@@H](NC(=O)[C@H](CC(C)C)NC(=O)[C@H](C)NC(=O)[C@@H]1CCCN1C(=O)[C@H](CCSC)NC(=O)[C@H](CO)NC(=O)CNC(=O)[C@H](Cc1ccccc1)NC(=O)[C@H](CCC(N)=O)NC(=O)[C@H](CC(N)=O)NC(=O)[C@H](CC(N)=O)NC(=O)[C@H](CC(C)C)NC(=O)[C@@H](N)CCCCN)[C@@H](C)O)C(=O)N[C@@H](C)C(=O)O` [GTOV NP166-180]: 120 pM; for `CC(C)C[C@H](NC(=O)CNC(=O)[C@H](CC(C)C)NC(=O)[C@H](CO)NC(=O)[C@@H](NC(=O)[C@H](CC(C)C)NC(=O)[C@H](C)NC(=O)[C@H](CCC(N)=O)NC(=O)[C@@H](NC(=O)[C@@H](NC(=O)[C@H](CC(N)=O)NC(=O)[C@@H](N)CC(N)=O)C(C)C)C(C)C)[C@@H](C)O)C(=O)N[C@@H](CC(C)C)C(=O)N[C@@H](Cc1ccc(O)cc1)C(=O)N[C@H](C(=O)O)[C@@H](C)O` [GTOV NP191-205]: 290 pM.

Regarding `CC[C@H](C)[C@H](N)C(=O)N[C@@H](CO)C(=O)NCC(=O)N[C@@H](Cc1ccc(O)cc1)C(=O)N[C@@H](CC(N)=O)C(=O)N[C@@H](Cc1ccccc1)C(=O)N[C@@H](CO)C(=O)N[C@@H](CC(C)C)C(=O)N[C@@H](CO)C(=O)N[C@@H](C)C(=O)N[C@@H](C)C(=O)N[C@H](C(=O)N[C@@H](CCCCN)C(=O)N[C@@H](C)C(=O)NCC(=O)O)C(C)C` [GTOV NP236-250], the IC50 turned out to be 120 pM. With `CC[C@H](C)[C@H](N)C(=O)N1CCC[C@H]1C(=O)N[C@H](C(=O)N[C@@H](CCC(N)=O)C(=O)N[C@@H](CC(C)C)C(=O)N[C@@H](CC(C)C)C(=O)N1CCC[C@H]1C(=O)N[C@@H](CC(N)=O)C(=O)N[C@H](C(=O)N[C@@H](CC(C)C)C(=O)N[C@H](C(=O)N[C@@H](Cc1ccccc1)C(=O)N[C@@H](CCC(N)=O)C(=O)N[C@@H](C)C(=O)N[C@@H](CCCCN)C(=O)O)C(C)C)[C@@H](C)O)[C@@H](C)CC` [GTOV NP541-555] (H-IPIQLLPNTLVFQAK-OH) the figure was 250 pM. The same measure for `CC(C)C[C@H](NC(=O)[C@H](C)NC(=O)[C@H](CC(C)C)NC(=O)[C@H](Cc1ccccc1)NC(=O)[C@@H](NC(=O)[C@H](Cc1ccccc1)NC(=O)[C@@H](N)Cc1ccccc1)C(C)C)C(=O)N[C@@H](C)C(=O)NCC(=O)N[C@@H](CCCNC(=N)N)C(=O)N[C@@H](CO)C(=O)N[C@@H](CS)C(=O)N[C@H](C(=O)N[C@@H](CCC(=O)O)C(=O)N[C@@H](CCC(=O)O)C(=O)O)[C@@H](C)O` [JUNV GPC46-60]: 230 pM; for `CC[C@H](C)[C@H](NC(=O)[C@H](CC(=O)O)NC(=O)[C@H](CC(C)C)NC(=O)[C@H](CC(C)C)NC(=O)[C@H](CCCNC(=N)N)NC(=O)[C@H](CC(=O)O)NC(=O)[C@H](CC(N)=O)NC(=O)[C@@H](NC(=O)[C@H](CC(C)C)NC(=O)[C@H](CCSC)NC(=O)[C@H](CC(C)C)NC(=O)[C@H](CCSC)NC(=O)[C@H](CCC(N)=O)NC(=O)CNC(=O)[C@@H](N)C(C)C)C(C)C)C(=O)O` [JUNV L381-395]: 210 pM; for `CC[C@H](C)[C@H](NC(=O)[C@H](C)NC(=O)[C@H](CCC(=O)O)NC(=O)[C@H](CC(C)C)NC(=O)[C@@H](NC(=O)[C@H](CC(=O)O)NC(=O)[C@H](CC(C)C)NC(=O)[C@H](CC(C)C)NC(=O)[C@@H](N)CCCNC(=N)N)[C@@H](C)CC)C(=O)N[C@@H](CCCCN)C(=O)N[C@@H](CC(C)C)C(=O)N[C@H](C(=O)N[C@@H](CCCNC(=N)N)C(=O)N[C@@H](CCCCN)C(=O)N[C@@H](CCCCN)C(=O)O)[C@@H](C)CC` [JUNV L391-405]: 480 pM. On to `CSCC[C@H](NC(=O)[C@H](CCC(N)=O)NC(=O)[C@@H](NC(=O)[C@H](Cc1c[nH]c2ccccc12)NC(=O)[C@@H](N)CCCCN)C(C)C)C(=O)N[C@@H](CS)C(=O)N[C@@H](CO)C(=O)N[C@@H](CCCNC(=N)N)C(=O)N[C@H](C(=O)N[C@@H](CC(C)C)C(=O)N[C@@H](CCCCN)C(=O)N[C@@H](CC(N)=O)C(=O)N[C@@H](CO)C(=O)N[C@@H](Cc1c[nH]cn1)C(=O)N[C@@H](CCC(N)=O)C(=O)O)[C@@H](C)O` [JUNV L411-425], for which it took 1100 pM to reach half-maximal inhibition (IC50). `CC[C@H](C)[C@H](NC(=O)[C@H](CC(=O)O)NC(=O)[C@H](CC(N)=O)NC(=O)[C@H](Cc1ccccc1)NC(=O)[C@@H](NC(=O)[C@H](CCCCN)NC(=O)[C@H](CCCNC(=N)N)NC(=O)[C@H](C)NC(=O)[C@H](CS)NC(=O)[C@H](CC(N)=O)NC(=O)[C@H](CCCNC(=N)N)NC(=O)[C@@H](NC(=O)[C@H](Cc1ccccc1)NC(=O)[C@@H](N)CCSC)[C@@H](C)CC)C(C)C)C(=O)N[C@@H](CCCCN)C(=O)O` [JUNV L1491-1505] had a 50% inhibitory concentration (IC50) of 2000 pM. The same measure for `CC(C)[C@H](NC(=O)[C@H](C)NC(=O)[C@H](CCCCN)NC(=O)[C@@H]1CCCN1C(=O)[C@H](CCCCN)NC(=O)[C@@H](NC(=O)[C@H](C)NC(=O)[C@H](Cc1c[nH]c2ccccc12)NC(=O)[C@H](Cc1ccccc1)NC(=O)[C@H](Cc1ccccc1)NC(=O)[C@H](CC(N)=O)NC(=O)[C@H](CCCCN)NC(=O)[C@@H](N)CC(N)=O)C(C)C)C(=O)N[C@@H](CCCNC(=N)N)C(=O)N[C@@H](CCC(N)=O)C(=O)O` [JUNV L1711-1725]: 60 pM.

(Values after paper PMC2880318 (Immunome Research, 2010).)
